From patent US20020137929A1, “1 - (3-heterocyclylphenyl) isothiourea, -isourea, -guanidine and -amidine herbicidal agents” (Intellectual Property Department, BASF Aktiengesellschaft, priority 1998, published 2002)

Columns and labels:
CYPIR (Rice Flatsedge) = assay: Preemergence weed control under flooded paddy conditions; assay type: in vivo, Cyperus iria; settings: rated 3-4 weeks after treatment
Method: (§1) Results of herbicide evaluation are expressed on a rating scale (0-9). The scale is based upon a visual observation of plant stand, vigor, malformation, size, chlorosis and overall plant appearance as compared with a control.
(§2) Preemergence herbicidal activity under flooded paddy conditions is determined as follows: plant seeds or propagating organs are planted in the top 0.5 cm of silt loam soil in 32 oz. plastic containers with a diameter of 10.5 cm and no drainage holes. Water is added to these containers and maintained at 1.5 to 3 cm above the soil surface for the duration of the experiment. The test compounds are applied as aqueous/acetone mixtures 50/50 v/v pipetted directly into the flood water to give the equivalent of about 0.0313 to 0.500 kg/ha of active ingredient. The treated containers are placed on greenhouse benches and cared for in accordance with conventional greenhouse procedures. Three to four weeks after treatment, the test is terminated and each container is examined and herbicidal effect rated according to the rating system provided in Example 37. The compounds evaluated are reported by compound number given in Example 37.
(§3) Plant species employed in this example are reported by header abbreviation, common name and scientific name.

[1] = test system: ECHORC (Watergrass (Calif.)); assay: as above; assay type: in vivo, Echinochloa oryzoides; settings: rated 3-4 weeks after treatment
Method: as §1, §2, §3

[2] = test system: IPOHE (Morningglory, Ivyleaf); assay: Preemergence herbicidal evaluation; assay type: in vivo, Ipomoea hederacea; settings: 0.2500 kg/ha, rated 4-5 weeks after treatment
Description: as §1
(§4) The preemergence herbicidal activity of the test compounds of the present invention is exemplified by the following tests in which the seeds of a variety of monocotyledonous and dicotyledonous plants are separately mixed with potting soil and planted on top of approximately one inch of soil in separate pint cups. After planting, the cups are sprayed with the selected aqueous acetone solution containing test compound in sufficient quantity to provide the equivalent of about 0.0156 to 0.500 kg per hectare of test compound per cup. The treated cups are then placed on greenhouse benches, watered and cared for in accordance with conventional greenhouse procedures. From four to five weeks after treatment, the tests are terminated and each cup is examined and rated according to the rating system provided in Example 37.
(§5) The compounds evaluated are reported by compound number given in Example 37.

[3] = test system: TRZAWR (Wheat, Winter, cv Riband); assay: Preemergence herbicidal evaluation; assay type: in vivo, Triticum aestivum; settings: 0.2500 kg/ha, rated 4-5 weeks after treatment
Description: as §1, §4, §5

ABUTH (Velvetleaf) [4] = assay: Postemergence herbicidal evaluation; assay type: in vivo, Abutilon theophrasti; settings: postemergence
Method: (§6) In the tests, seedling plants are grown in jiffy flats for about two weeks. The test compounds are dispersed in 50/50 acetone/water mixtures containing 0.5% TWEEN®20, a polyoxyethylene sorbitan monolaurate surfactant of Atlas Chemical Industries, in sufficient quantities to provide the equivalent of about 0.0156 kg to 0.500 kg per hectare of active compound when applied to the plants through a spray nozzle operating at 40 psi for a predetermined time. After spraying, the plants are placed on greenhouse benches and are cared for in accordance with conventional greenhouse procedures. From four to five weeks after treatment, the seedling plants are examined and rated according to the rating system set forth below. Where more than one test is involved for a given compound, the data are averaged.
(§7) Plant species employed in these evaluations are reported by header abbreviation, common name and scientific name.
as §1

[5] = test system: GLXMAW (Soybean, Williams); assay: Preemergence herbicidal evaluation; assay type: in vivo, Glycine max, (L.) Merr. cv Williams; settings: 0.2500 kg/ha, rated 4-5 weeks after treatment
Description: as §1, §4, §5

GALAP (Galium) [6] = assay: Preemergence herbicidal evaluation; assay type: in vivo, Galium aparine; settings: 0.2500 kg/ha, rated 4-5 weeks after treatment
Description: as §1, §4, §5

[7] = test system: SAGPY (Arrowhead (Pygmaea)); assay: Preemergence weed control under flooded paddy conditions; assay type: in vivo, Sagittaria pygmaea; settings: rated 3-4 weeks after treatment
Method: as §1, §2, §3

[8] = test system: TRZAWR (Wheat, Winter, cv Riband); assay: Postemergence herbicidal evaluation; assay type: in vivo, Triticum aestivum; settings: postemergence
Method: as §6, §7, §1

CASOB (Sicklepod) [9] = assay: Preemergence herbicidal evaluation; assay type: in vivo, Cassia obtusifolia; settings: 0.2500 kg/ha, rated 4-5 weeks after treatment
Description: as §1, §4, §5

ABUTH (Velvetleaf) [10] = assay: Preemergence herbicidal evaluation; assay type: in vivo, Abutilon theophrasti; settings: 0.2500 kg/ha, rated 4-5 weeks after treatment
Description: as §1, §4, §5

SETVI (Foxtail, Green) [11] = assay: Preemergence herbicidal evaluation; assay type: in vivo, Setaria viridis; settings: 0.2500 kg/ha, rated 4-5 weeks after treatment
Description: as §1, §4, §5

CASOB (Sicklepod) [12] = assay: Postemergence herbicidal evaluation; assay type: in vivo, Cassia obtusifolia; settings: postemergence
Method: as §6, §7, §1

[13] = test system: IPOHE (Morningglory, Ivyleaf); assay: Postemergence herbicidal evaluation; assay type: in vivo, Ipomoea hederacea; settings: postemergence
Method: as §6, §7, §1

[14] = test system: CHEAL (Lambsquarters, Common); assay: Postemergence herbicidal evaluation; assay type: in vivo, Chenopodium album; settings: postemergence
Method: as §6, §7, §1

ORYSAT (Rice, Tebonnet) [15] = assay: Preemergence herbicidal evaluation; assay type: in vivo, Oryza sativa, (L.) Tebonnet; settings: 0.2500 kg/ha, rated 4-5 weeks after treatment
Description: as §1, §4, §5

GALAP (Galium) [16] = assay: Postemergence herbicidal evaluation; assay type: in vivo, Galium aparine; settings: postemergence
Method: as §6, §7, §1

SETVI (Foxtail, Green) [17] = assay: Postemergence herbicidal evaluation; assay type: in vivo, Setaria viridis; settings: postemergence
Method: as §6, §7, §1

ECHCG (Barnyardgrass) [18] = assay: Postemergence herbicidal evaluation; assay type: in vivo, Echinochloa crus-galli; settings: postemergence
Method: as §6, §7, §1

MOOVA (Monochoria) = assay: Preemergence weed control under flooded paddy conditions; assay type: in vivo, Monochoria vaginalis; settings: rated 3-4 weeks after treatment
Method: as §1, §2, §3

[19] = test system: GLXMAW (Soybean, Williams); assay: Postemergence herbicidal evaluation; assay type: in vivo, Glycine max, (L.) Merr. cv Williams; settings: postemergence
Method: as §6, §7, §1

[20] = test system: CHEAL (Lambsquarters, Common); assay: Preemergence herbicidal evaluation; assay type: in vivo, Chenopodium album; settings: 0.2500 kg/ha, rated 4-5 weeks after treatment
Description: as §1, §4, §5

ZEAMX (Corn, Field) [21] = assay: Preemergence herbicidal evaluation; assay type: in vivo, Zea mays; settings: 0.2500 kg/ha, rated 4-5 weeks after treatment
Description: as §1, §4, §5

ECHCG (Barnyardgrass) [22] = assay: Preemergence herbicidal evaluation; assay type: in vivo, Echinochloa crus-galli; settings: 0.2500 kg/ha, rated 4-5 weeks after treatment
Description: as §1, §4, §5

ORYSAT (Rice, Tebonnet) [23] = assay: Postemergence herbicidal evaluation; assay type: in vivo, Oryza sativa, (L.) Tebonnet; settings: postemergence
Method: as §6, §7, §1

AMBEL (Ragweed, Common) [24] = assay: Postemergence herbicidal evaluation; assay type: in vivo, Ambrosia artemisifolia; settings: postemergence
Method: as §6, §7, §1

AMBEL (Ragweed, Common) [25] = assay: Preemergence herbicidal evaluation; assay type: in vivo, Ambrosia artemisifolia; settings: 0.2500 kg/ha, rated 4-5 weeks after treatment
Description: as §1, §4, §5

ZEAMX (Corn, Field) [26] = assay: Postemergence herbicidal evaluation; assay type: in vivo, Zea mays; settings: postemergence
Method: as §6, §7, §1

CYPSE (Flatsedge) = assay: Preemergence weed control under flooded paddy conditions; assay type: in vivo, Cyperus serotinus; settings: rated 3-4 weeks after treatment
Method: as §1, §2, §3

CCOC(=O)CN1C(=O)CSC1=Nc1cc(N2C(=O)CC(C(F)(F)F)CC2=O)c(F)cc1Cl [Compound 169, Ethyl 2-{{2-chloro-5-[2,6-dioxo-4-(trifluoromethyl)piperidino]-4-fluorophenyl}imino}-4-oxo-3-thiazolidineacetate]
6.5: herbicidal rating GLXMAW ([19]; rate 0.0313 kg/ha)
9.0: herbicidal rating ABUTH (ABUTH (Velvetleaf) [4]; rate 0.0156 kg/ha) | herbicidal rating ABUTH (ABUTH (Velvetleaf) [4]; rate 0.0313 kg/ha) | herbicidal rating ABUTH (ABUTH (Velvetleaf) [4]; rate 0.0625 kg/ha) | herbicidal rating IPOHE ([13]; rate 0.0156 kg/ha) | herbicidal rating IPOHE ([13]; rate 0.0313 kg/ha) | herbicidal rating IPOHE ([13]; rate 0.0625 kg/ha) | herbicidal rating SETVI (SETVI (Foxtail, Green) [17]; rate 0.0625 kg/ha) | herbicidal rating AMBEL (AMBEL (Ragweed, Common) [24]; rate 0.0156 kg/ha) | herbicidal rating AMBEL (AMBEL (Ragweed, Common) [24]; rate 0.0313 kg/ha) | herbicidal rating AMBEL (AMBEL (Ragweed, Common) [24]; rate 0.0625 kg/ha)
7.5: herbicidal rating GLXMAW ([19]; rate 0.0625 kg/ha) | herbicidal rating ZEAMX (ZEAMX (Corn, Field) [26]; rate 0.0313 kg/ha)
0.0: herbicidal effect rating, CYPIR (CYPIR (Rice Flatsedge); 0.0313 kg/ha) | herbicidal effect rating, CYPIR (CYPIR (Rice Flatsedge); 0.0625 kg/ha) | herbicidal effect rating, CYPIR (CYPIR (Rice Flatsedge); 0.1250 kg/ha) | herbicidal effect rating, ECHORC ([1]; 0.0313 kg/ha) | herbicidal effect rating, ECHORC ([1]; 0.0625 kg/ha) | herbicidal effect rating, ECHORC ([1]; 0.1250 kg/ha) | Preemergence herbicidal rating TRZAWR [3] | Preemergence herbicidal rating GALAP (GALAP (Galium) [6]) | herbicidal effect rating, SAGPY ([7]; 0.0313 kg/ha) | herbicidal effect rating, SAGPY ([7]; 0.0625 kg/ha) | herbicidal effect rating, SAGPY ([7]; 0.1250 kg/ha) | Preemergence herbicidal rating CASOB (CASOB (Sicklepod) [9]) | Preemergence herbicidal rating SETVI (SETVI (Foxtail, Green) [11]) | herbicidal rating CASOB (CASOB (Sicklepod) [12]; rate 0.0156 kg/ha) | herbicidal rating CHEAL ([14]; rate 0.0156 kg/ha) | Preemergence herbicidal rating ORYSAT (ORYSAT (Rice, Tebonnet) [15]) | herbicidal rating GALAP (GALAP (Galium) [16]; rate 0.0156 kg/ha) | herbicidal rating GALAP (GALAP (Galium) [16]; rate 0.0313 kg/ha) | herbicidal rating GALAP (GALAP (Galium) [16]; rate 0.0625 kg/ha) | herbicidal rating SETVI (SETVI (Foxtail, Green) [17]; rate 0.0156 kg/ha) | Preemergence herbicidal rating ZEAMX (ZEAMX (Corn, Field) [21]) | Preemergence herbicidal rating ECHCG (ECHCG (Barnyardgrass) [22]) | herbicidal effect rating, CYPSE (CYPSE (Flatsedge); 0.0313 kg/ha) | herbicidal effect rating, CYPSE (CYPSE (Flatsedge); 0.1250 kg/ha)
2.0: herbicidal effect rating, CYPIR (CYPIR (Rice Flatsedge); 0.2500 kg/ha) | herbicidal effect rating, ECHORC ([1]; 0.2500 kg/ha) | herbicidal rating ECHCG (ECHCG (Barnyardgrass) [18]; rate 0.0156 kg/ha) | herbicidal rating ORYSAT (ORYSAT (Rice, Tebonnet) [23]; rate 0.0625 kg/ha)
0.5: herbicidal rating ORYSAT (ORYSAT (Rice, Tebonnet) [23]; rate 0.0156 kg/ha)
4.0: herbicidal rating CHEAL ([14]; rate 0.0625 kg/ha) | herbicidal rating ECHCG (ECHCG (Barnyardgrass) [18]; rate 0.0313 kg/ha) | Preemergence herbicidal rating CHEAL [20]
5.0: Preemergence herbicidal rating ABUTH (ABUTH (Velvetleaf) [10]) | herbicidal rating SETVI (SETVI (Foxtail, Green) [17]; rate 0.0313 kg/ha) | herbicidal effect rating, MOOVA (MOOVA (Monochoria); 0.0313 kg/ha) | herbicidal rating GLXMAW ([19]; rate 0.0156 kg/ha)
1.0: herbicidal rating CASOB (CASOB (Sicklepod) [12]; rate 0.0313 kg/ha) | herbicidal rating ORYSAT (ORYSAT (Rice, Tebonnet) [23]; rate 0.0313 kg/ha)
4.5: herbicidal rating TRZAWR ([8]; rate 0.0156 kg/ha)
3.0: Preemergence herbicidal rating IPOHE [2] | Preemergence herbicidal rating GLXMAW [5] | herbicidal effect rating, SAGPY ([7]; 0.2500 kg/ha) | herbicidal rating CASOB (CASOB (Sicklepod) [12]; rate 0.0625 kg/ha) | herbicidal rating CHEAL ([14]; rate 0.0313 kg/ha) | Preemergence herbicidal rating AMBEL (AMBEL (Ragweed, Common) [25])
7.0: herbicidal rating TRZAWR ([8]; rate 0.0625 kg/ha) | herbicidal rating ECHCG (ECHCG (Barnyardgrass) [18]; rate 0.0625 kg/ha) | herbicidal effect rating, MOOVA (MOOVA (Monochoria); 0.2500 kg/ha)
6.0: herbicidal rating TRZAWR ([8]; rate 0.0313 kg/ha) | herbicidal effect rating, MOOVA (MOOVA (Monochoria); 0.0625 kg/ha) | herbicidal effect rating, MOOVA (MOOVA (Monochoria); 0.1250 kg/ha) | herbicidal rating ZEAMX (ZEAMX (Corn, Field) [26]; rate 0.0156 kg/ha)
8.5: herbicidal rating ZEAMX (ZEAMX (Corn, Field) [26]; rate 0.0625 kg/ha)
